Columns and labels:
[1] = target: Sterol 14-alpha demethylase (Trypanosoma cruzi (strain CL Brener), UniProt Q7Z1V1); assay: Inhibition of Trypanosoma cruzi Sterol 14-alpha demethylase
Proline--tRNA ligase = target: T1, Proline--tRNA ligase (Plasmodium falciparum (isolate 3D7), UniProt Q8I5R7); assay: Inhibition of Plasmodium falciparum 3D7 Prolyl-tRNA synthetase
T1 sequence (Q8I5R7 whole entry): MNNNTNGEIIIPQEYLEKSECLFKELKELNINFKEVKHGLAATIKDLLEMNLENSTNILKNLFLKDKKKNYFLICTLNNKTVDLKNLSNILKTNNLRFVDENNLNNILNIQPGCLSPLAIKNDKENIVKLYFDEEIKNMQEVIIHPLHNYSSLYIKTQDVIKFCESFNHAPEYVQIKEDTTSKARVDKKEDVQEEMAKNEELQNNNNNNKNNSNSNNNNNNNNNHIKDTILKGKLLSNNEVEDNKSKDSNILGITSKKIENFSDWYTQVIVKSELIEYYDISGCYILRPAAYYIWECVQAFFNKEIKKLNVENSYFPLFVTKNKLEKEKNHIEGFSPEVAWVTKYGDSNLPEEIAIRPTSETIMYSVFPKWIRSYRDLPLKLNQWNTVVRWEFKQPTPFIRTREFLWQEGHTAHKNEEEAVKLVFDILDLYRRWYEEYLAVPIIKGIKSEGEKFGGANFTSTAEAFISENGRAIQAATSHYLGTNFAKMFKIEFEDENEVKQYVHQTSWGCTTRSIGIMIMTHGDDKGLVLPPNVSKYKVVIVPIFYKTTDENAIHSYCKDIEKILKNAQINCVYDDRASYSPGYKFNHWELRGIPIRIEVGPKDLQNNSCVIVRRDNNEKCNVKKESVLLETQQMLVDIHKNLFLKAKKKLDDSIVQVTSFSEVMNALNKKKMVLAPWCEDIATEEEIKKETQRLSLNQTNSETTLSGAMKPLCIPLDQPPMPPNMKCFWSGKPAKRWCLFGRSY

[2] = Inhibition of PI3K (unknown origin) by ADP-Glo assay; design: species or system Homo sapiens
[3] = Cytotoxicity against rat C6 cells assessed as reduction in cell viability incubated for 48 hrs by MTT assay; type: toxicity, cell-based
[4] = target: T2, Adrenergic receptor alpha-1 (Homo sapiens, UniProt P35348+P25100+P35368); assay: Antagonist activity at Adrenergic alpha-1 receptor (unknown origin); type: functional
T2 sequence (P35348 whole entry): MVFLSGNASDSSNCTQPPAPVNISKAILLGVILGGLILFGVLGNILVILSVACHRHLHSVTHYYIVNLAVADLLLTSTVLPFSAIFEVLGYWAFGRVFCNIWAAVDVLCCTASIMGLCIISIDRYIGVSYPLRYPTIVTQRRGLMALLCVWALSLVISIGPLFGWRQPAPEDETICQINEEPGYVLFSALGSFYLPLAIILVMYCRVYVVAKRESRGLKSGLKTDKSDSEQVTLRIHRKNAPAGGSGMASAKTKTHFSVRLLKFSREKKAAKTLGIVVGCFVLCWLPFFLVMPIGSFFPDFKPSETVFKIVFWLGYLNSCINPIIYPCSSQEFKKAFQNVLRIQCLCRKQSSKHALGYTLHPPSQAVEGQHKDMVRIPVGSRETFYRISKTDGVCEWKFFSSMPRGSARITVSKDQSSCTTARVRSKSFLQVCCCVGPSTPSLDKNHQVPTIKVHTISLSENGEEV
T2 sequence (P25100 whole entry): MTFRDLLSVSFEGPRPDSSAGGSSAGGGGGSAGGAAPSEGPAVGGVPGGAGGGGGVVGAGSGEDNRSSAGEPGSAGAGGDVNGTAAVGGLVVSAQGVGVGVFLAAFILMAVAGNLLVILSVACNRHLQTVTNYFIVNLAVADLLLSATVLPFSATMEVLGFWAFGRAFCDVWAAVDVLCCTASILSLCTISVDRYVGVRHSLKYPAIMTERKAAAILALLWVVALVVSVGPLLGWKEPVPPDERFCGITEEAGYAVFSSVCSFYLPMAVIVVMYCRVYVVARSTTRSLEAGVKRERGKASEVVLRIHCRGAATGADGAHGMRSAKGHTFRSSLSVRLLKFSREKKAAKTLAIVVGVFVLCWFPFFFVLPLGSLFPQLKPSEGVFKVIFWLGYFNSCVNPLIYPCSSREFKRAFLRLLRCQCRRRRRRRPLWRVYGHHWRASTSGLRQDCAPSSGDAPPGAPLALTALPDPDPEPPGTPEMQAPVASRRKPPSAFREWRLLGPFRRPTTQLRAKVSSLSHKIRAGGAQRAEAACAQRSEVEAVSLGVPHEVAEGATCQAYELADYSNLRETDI
T2 sequence (P35368 whole entry): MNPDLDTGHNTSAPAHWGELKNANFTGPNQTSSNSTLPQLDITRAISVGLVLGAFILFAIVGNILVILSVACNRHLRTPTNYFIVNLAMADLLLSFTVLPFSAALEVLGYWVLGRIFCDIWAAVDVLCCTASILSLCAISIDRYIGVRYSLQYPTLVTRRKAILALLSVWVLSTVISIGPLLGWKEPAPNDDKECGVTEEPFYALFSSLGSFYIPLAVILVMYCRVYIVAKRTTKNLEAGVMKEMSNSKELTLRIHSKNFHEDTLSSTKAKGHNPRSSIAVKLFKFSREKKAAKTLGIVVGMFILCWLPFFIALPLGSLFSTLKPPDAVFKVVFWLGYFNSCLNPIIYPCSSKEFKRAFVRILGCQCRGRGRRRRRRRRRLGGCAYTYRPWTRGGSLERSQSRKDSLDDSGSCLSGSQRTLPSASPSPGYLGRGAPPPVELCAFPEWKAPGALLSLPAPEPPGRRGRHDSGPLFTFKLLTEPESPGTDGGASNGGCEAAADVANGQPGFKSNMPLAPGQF

Tubulin = assay: Inhibition of tubulin polymerization (unknown origin) incubated for 30 mins in presence of GTP by spectrophotometric analysis; type: protein-complex assay, Homo sapiens
HCT-8 = assay: Cytotoxicity against human HCT-8 cells assessed as cell growth inhibition incubated for 72 hrs by MTT assay; type: functional, cell-based; details: HCT-8, 72 h
K562 [5] = assay: Cytotoxicity against human K562 cells assessed as cell growth inhibition incubated for 72 hrs by MTT assay; type: functional, cell-based; details: K562, 72 h
KB = assay: Cytotoxicity against human KB cells assessed as cell growth inhibition incubated for 72 hrs by MTT assay; type: functional, cell-based
MDA-MB-231 = assay: Cytotoxicity against human MDA-MB-231 cells assessed as cell growth inhibition incubated for 72 hrs by MTT assay; type: functional, cell-based; details: MDA-MB-231, 72 h
HepG2 [6] = assay: Cytotoxicity against human HepG2 cells assessed as cell growth inhibition incubated for 72 hrs by MTT assay; type: functional, cell-based; details: HepG2, 72 h
K562 [7] = assay: Cytotoxicity against human K562 cells; type: functional, cell-based
HCT-116 = assay: Cytotoxicity against human HCT-116 cells; type: functional, cell-based
HuT78 = assay: Cytotoxicity against human HuT78 cells; type: functional, cell-based
[8] = target: Phosphatidylinositol 4,5-bisphosphate 3-kinase catalytic subunit alpha isoform (Homo sapiens, UniProt P42336); assay: Inhibition of PI3Kalpha (unknown origin)
Chain of Phosphatidylinositol 4,5-bisphosphate 3-kinase catalytic subunit alpha isoform (P42336 whole entry, canonical isoform): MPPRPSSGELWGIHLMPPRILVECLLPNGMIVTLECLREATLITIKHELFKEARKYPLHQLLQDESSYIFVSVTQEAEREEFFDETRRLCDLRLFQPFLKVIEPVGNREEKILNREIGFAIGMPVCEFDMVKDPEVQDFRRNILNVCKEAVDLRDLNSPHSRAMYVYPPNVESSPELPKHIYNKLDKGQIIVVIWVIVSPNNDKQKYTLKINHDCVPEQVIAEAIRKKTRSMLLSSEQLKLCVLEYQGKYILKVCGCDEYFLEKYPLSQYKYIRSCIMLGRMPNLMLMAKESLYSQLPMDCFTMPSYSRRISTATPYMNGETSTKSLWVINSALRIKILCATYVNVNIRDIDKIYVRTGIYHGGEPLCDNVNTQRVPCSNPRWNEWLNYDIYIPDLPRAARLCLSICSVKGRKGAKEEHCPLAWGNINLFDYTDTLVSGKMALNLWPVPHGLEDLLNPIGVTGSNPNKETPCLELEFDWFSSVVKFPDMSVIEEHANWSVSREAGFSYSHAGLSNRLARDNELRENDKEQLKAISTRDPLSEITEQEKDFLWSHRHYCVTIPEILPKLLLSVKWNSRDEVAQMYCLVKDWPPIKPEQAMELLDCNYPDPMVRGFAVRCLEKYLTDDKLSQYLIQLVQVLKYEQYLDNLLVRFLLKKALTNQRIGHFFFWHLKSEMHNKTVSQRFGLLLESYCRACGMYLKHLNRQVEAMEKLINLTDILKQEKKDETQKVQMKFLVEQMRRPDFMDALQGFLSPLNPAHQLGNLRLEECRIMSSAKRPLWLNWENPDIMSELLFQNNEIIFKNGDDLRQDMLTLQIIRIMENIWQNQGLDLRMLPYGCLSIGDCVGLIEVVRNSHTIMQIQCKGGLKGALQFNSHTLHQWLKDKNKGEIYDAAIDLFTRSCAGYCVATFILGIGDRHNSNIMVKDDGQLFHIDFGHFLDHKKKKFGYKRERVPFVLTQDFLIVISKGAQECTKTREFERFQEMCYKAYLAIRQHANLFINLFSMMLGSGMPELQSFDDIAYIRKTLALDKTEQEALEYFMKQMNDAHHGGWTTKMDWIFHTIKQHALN

Histone deacetylase = assay: Inhibition of HDAC (unknown origin); type: protein assay, Homo sapiens
HepG2 [9] = assay: Cytotoxicity against human HepG2 cells assessed as growth inhibition by MTT assay; type: functional, cell-based
[10] = Inhibition of PDE2 (unknown origin); design: species or system Homo sapiens
Homo sapiens = species on record: Homo sapiens; assay: Activation of GABA receptor (unknown origin); details: filed as activator
[11] = target: Epidermal growth factor receptor (Homo sapiens, UniProt P00533); assay: Inhibition of EGFR (unknown origin)
Chain of Epidermal growth factor receptor (P00533 whole entry): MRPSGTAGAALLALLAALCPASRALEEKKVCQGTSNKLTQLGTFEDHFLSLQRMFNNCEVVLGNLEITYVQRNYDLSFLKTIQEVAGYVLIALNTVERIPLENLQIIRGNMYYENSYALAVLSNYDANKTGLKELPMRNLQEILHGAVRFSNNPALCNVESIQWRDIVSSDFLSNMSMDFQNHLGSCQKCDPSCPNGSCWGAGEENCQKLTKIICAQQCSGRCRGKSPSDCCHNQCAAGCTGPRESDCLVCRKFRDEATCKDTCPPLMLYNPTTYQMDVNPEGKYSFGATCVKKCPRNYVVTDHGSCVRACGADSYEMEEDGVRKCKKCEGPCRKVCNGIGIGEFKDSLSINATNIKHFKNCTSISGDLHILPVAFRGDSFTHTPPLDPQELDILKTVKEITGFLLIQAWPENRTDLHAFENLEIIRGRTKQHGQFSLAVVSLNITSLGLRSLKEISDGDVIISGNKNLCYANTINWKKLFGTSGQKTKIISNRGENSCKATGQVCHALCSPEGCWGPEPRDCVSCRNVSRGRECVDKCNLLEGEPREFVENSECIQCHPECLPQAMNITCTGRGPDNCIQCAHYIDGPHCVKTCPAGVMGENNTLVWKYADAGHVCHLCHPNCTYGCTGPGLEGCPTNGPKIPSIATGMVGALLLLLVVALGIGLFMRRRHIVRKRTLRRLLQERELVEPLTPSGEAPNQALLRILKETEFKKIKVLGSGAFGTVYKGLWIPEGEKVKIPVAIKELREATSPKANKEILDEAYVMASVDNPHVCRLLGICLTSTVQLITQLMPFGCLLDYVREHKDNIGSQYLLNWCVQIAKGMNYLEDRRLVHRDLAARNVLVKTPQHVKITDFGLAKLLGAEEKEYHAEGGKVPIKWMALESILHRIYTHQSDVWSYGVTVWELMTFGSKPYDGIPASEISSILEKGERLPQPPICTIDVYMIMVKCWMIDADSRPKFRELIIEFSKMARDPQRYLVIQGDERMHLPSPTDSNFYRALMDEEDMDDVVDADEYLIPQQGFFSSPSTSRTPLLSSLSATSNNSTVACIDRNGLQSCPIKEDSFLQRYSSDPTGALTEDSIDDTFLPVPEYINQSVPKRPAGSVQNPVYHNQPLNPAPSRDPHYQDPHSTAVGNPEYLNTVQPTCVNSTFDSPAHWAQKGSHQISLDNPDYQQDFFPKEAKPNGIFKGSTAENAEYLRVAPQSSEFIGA

[12] = target: Vascular endothelial growth factor receptor 2 (Homo sapiens, UniProt P35968); assay: Inhibition of VEGFR-2 (unknown origin) using poly(Glu:Tyr)(4:1) and ATP as substrate by incubated for 1 hr by spectrophotometric based ELISA
Chain of Vascular endothelial growth factor receptor 2 (P35968 whole entry): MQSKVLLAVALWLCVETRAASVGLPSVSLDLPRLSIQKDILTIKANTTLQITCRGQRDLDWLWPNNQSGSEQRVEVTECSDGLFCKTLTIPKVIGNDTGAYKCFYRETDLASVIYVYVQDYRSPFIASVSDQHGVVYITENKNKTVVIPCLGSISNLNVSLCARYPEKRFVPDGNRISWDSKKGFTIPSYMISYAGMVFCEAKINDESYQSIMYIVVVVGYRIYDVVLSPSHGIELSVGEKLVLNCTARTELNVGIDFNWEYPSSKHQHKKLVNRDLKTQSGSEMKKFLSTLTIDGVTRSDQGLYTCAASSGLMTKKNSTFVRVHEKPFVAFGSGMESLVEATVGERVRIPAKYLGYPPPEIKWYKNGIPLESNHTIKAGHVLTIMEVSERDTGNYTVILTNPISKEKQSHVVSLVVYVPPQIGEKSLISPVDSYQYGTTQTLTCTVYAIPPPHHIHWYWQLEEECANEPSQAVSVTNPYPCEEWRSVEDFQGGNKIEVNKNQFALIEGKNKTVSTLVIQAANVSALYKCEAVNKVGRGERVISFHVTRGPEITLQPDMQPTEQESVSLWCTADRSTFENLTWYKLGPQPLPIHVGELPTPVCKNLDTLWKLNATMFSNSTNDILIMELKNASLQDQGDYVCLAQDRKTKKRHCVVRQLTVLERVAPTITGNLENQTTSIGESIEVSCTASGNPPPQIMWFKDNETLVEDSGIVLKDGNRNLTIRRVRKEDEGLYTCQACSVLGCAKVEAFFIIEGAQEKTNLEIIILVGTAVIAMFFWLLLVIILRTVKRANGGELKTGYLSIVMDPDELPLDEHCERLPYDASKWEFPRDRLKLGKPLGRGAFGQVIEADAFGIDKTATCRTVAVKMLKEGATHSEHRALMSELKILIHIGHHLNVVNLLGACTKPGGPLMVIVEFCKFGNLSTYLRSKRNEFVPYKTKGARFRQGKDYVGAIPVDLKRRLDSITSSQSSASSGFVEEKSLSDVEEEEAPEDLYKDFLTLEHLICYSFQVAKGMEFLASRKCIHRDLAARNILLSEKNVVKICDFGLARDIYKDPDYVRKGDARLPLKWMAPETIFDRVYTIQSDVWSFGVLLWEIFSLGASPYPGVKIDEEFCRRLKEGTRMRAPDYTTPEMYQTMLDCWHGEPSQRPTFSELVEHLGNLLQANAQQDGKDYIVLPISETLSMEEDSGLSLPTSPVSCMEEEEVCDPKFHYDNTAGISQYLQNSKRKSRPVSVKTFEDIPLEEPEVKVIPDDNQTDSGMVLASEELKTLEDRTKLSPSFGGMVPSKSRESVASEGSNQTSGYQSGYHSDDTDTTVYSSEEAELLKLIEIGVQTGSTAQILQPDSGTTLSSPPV

[13] = Cytotoxicity against human HUVEC cells assessed as cell growth inhibition incubated for 72 hrs by SRB assay; type: toxicity, cell-based
[14] = Inhibition of COX (unknown origin); design: species or system Homo sapiens
MV4-11 = assay: Cytotoxicity against human MV4-11 cells assessed as cell growth inhibition incubated for 72 hrs by MTS assay; type: functional, cell-based; details: MV4-11, 72 h
MOLM-13 = assay: Cytotoxicity against human MOLM-13 cells assessed as cell growth inhibition incubated for 72 hrs by MTS assay; type: functional, cell-based; details: MOLM-13, 72 h
[15] = target: Phosphatidylinositol 4,5-bisphosphate 3-kinase catalytic subunit gamma isoform (Homo sapiens, UniProt P48736); assay: Inhibition of PI3Kgamma (unknown origin)
Chain of Phosphatidylinositol 4,5-bisphosphate 3-kinase catalytic subunit gamma isoform (P48736 whole entry, canonical isoform): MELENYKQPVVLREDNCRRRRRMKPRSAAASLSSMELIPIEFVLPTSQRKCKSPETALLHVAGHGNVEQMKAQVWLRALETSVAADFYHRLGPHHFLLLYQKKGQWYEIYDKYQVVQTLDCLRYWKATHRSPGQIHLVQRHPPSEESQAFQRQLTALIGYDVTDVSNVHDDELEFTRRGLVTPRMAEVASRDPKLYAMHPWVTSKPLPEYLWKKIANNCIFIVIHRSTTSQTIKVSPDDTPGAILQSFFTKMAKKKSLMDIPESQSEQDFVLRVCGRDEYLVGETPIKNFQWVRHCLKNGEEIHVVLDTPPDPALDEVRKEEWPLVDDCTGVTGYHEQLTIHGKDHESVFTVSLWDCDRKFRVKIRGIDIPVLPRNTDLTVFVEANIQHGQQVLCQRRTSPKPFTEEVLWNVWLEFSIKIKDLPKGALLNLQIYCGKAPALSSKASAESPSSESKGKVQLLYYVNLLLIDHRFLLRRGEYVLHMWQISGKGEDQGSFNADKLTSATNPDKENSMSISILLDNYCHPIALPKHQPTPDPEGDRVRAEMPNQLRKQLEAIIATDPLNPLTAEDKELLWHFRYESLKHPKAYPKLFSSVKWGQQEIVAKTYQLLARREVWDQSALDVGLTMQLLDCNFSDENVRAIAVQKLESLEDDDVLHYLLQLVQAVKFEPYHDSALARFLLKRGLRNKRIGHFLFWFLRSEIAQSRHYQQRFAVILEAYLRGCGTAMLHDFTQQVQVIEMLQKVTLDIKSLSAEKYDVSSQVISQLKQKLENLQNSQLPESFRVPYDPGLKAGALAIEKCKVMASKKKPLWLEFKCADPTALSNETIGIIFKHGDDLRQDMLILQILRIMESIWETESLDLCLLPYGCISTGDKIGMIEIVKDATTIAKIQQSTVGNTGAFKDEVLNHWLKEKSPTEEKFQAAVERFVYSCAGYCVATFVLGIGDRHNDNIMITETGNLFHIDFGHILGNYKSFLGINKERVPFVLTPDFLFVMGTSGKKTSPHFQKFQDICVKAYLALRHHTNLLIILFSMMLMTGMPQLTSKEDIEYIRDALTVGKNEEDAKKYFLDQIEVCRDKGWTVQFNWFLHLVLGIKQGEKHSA

For `C[C@@H](n1cnc2cc(Cl)ccc2c1=O)[C@](O)(Cn1cncn1)c1ccc(F)cc1F` [ALBACONAZOLE], the IC50 [1] was 1 nM.

For `O=C(C[C@H]1NCCC[C@@H]1O)Cn1cnc2ccccc2c1=O`, the EC50 (Proline--tRNA ligase) was 4 nM.

`O=c1cc(N2CCOCC2)oc2c(-c3ccccc3)cccc12` [LY-294002] gave an IC50 [2] of 57.3 µM.

Work on `OC1Nc2ccccc2-c2cc(-c3ccc(Cl)cc3)nn21` (centres undefined) yielded an IC50 at 48 h [3] of 3.86 µM.

With `CCCC(=O)N1CCCN(c2nc(N)c3cc(OC)c(OC)cc3n2)CC1` [BUNAZOSIN] the IC50 [4] was 1.22 nM.

`COc1ccc(N(C)c2nc(NCc3cccnc3)nc3ccccc23)cc1` gave an IC50 (Tubulin) of 2450 nM, an IC50 (HCT-8) of 110 nM and an IC50 (K562 [5]) of 110 nM. For the same compound, the IC50 (KB) was 110 nM, the IC50 (MDA-MB-231) was 110 nM and the IC50 (HepG2 [6]) was 110 nM.

For `O=C(CCCCCOc1ccc2c(c1)N=C(NC(=O)c1ccccc1)N1CCN=C21)NO`, the IC50 (K562 [7]) was 95 nM, the IC50 (HCT-116) was 330 nM and the IC50 (HuT78) was 62 nM. It also gave an IC50 [8] of 2.98 nM and an IC50 (Histone deacetylase) of 50 nM.

Compound `COc1cc(C2Sc3ccccc3C(=O)N2NC(=O)c2ccc(-n3c(-c4ccncc4)nc4ccccc4c3=O)cc2)ccc1O` (centres undefined) has an IC50 (HepG2 [9]) of 60.3 µM and an IC50 [2] of 31.9 µM.

Work on `O=C1CN2Cc3c(ccc(Cl)c3Cl)N=C2N1` [ANAGRELIDE] yielded an IC50 [10] of 26 nM.

`Cc1ccccc1-n1c(C)nc2ccccc2c1=O` showed an ED50 (Homo sapiens) of 400 µmol/kg.

In the case of `Cc1ccc2c(-c3ccccc3)nc(=O)n(C(C)C)c2c1` [PROQUAZONE], the IC50 [11] is reported as 2 nM.

For `COc1cc([C@@H]2c3cc4c(cc3[C@@H](O[C@@H]3O[C@@H]5CO[C@@H](C)O[C@H]5[C@H](O)[C@H]3O)[C@H]3COC(=O)[C@H]23)OCO4)cc(OC)c1O` [ETOPOSIDE], the IC50 at 48 h [3] was 4.32 µM.

With `COc1cc2ncnc(-n3ncc4cc(NC(=O)Nc5ccc(C)c(Cl)c5)ccc43)c2cc1OC` the IC50 [12] was 12 nM and the IC50 at 72 h [13] was 1800 nM.

For `COc1cccc2c1C(=O)c1c(O)c3c(c(O)c1C2=O)C[C@@](O)(C(=O)CO)C[C@@H]3O[C@H]1C[C@H](N)[C@H](O)[C@H](C)O1` [DOXORUBICIN], the IC50 (HepG2 [9]) was 60.3 µM.

`COc1cc2nc(N3CCN(C(=O)c4ccco4)CC3)nc(N)c2cc1OC` [PRAZOSIN] gave an IC50 [14] of 1900 nM.

With `CN(C)CCCOc1ccc2c(NCCc3cnc(NC(=O)Nc4cccc(Cl)c4)s3)ncnc2c1` the EC50 (MV4-11) was 5 nM and the EC50 (MOLM-13) was 5 nM.

`NC(=O)c1cc(-c2ccc3ncnc(-c4cccc(C(=O)NCCN5CCOCC5)c4)c3c2)ccc1Cl` showed an IC50 [15] of 17 nM.
